Data: patent US12043600B2, “Microbiocidal compounds” (SYNGENTA CROP PROTECTION AG, priority 2018, dated 2024)

How the values were obtained:
[1] = test system: Botryotinia fuckeliana (Botrytis cinerea); experiment: Botryotinia fuckeliana (Botrytis cinerea)/Liquid Culture (Gray Mould); type: cell-based; details: liquid culture, compared to untreated control
Experimental: Conidia of the fungus from cryogenic storage are directly mixed into nutrient broth (Vogels broth). After placing a (DMSO) solution of test compound into a microtiter plate (96-well format), the nutrient broth containing the fungal spores is added.

[2] = test system: Glomerella lagenarium (Colletotrichum lagenarium); experiment: Glomerella lagenarium (Colletotrichum lagenarium)/Liquid Culture (Anthracnose); type: cell-based; details: Colletotrichum orbiculare, liquid culture, compared to untreated control
[3] = test system: Blumeria graminis f. sp. tritici (Erysiphe graminis f. sp. tritici); experiment: Blumeria graminis f. sp. tritici/Wheat/Leaf Disc Preventative (Powdery Mildew on Wheat); type: in vivo; details: foliar, wheat leaf disc preventative, compared to untreated control
How it was run: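 Wheat cv. Kanzler leaf segments on agar sprayed with formulated compound, inoculated with powdery mildew 1 day later and held at 20° C, 60% rh (24 h dark, then 12 h light/12 h dark). Percent disease control versus untreated scored 6-8 days after application.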

[4] = test system: Phaeosphaeria nodorum (Septoria nodorum); experiment: Phaeosphaeria nodorum (Septoria nodorum)/Wheat/Leaf Disc Preventative (Glume Blotch); type: in vivo; details: Parastagonospora nodorum, foliar, wheat leaf disc preventative, compared to untreated control
How it was run: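 Wheat cv. Kanzler leaf discs on agar were sprayed with formulated compound diluted in water and inoculated with P. nodorum spores 2 days later. Discs kept at 20 °C, 75% rh, 12 h light/dark; percent disease control versus untreated scored 5–7 days after application.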

[5] = test system: Monographella nivalis (Microdochium nivale); experiment: Monographella nivalis (Microdochium nivale)/Liquid Culture (Foot Rot Cereals); type: cell-based; details: liquid culture, compared to untreated control
How it was run: (§1)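 Conidia from cryogenic storage were mixed directly into potato dextrose broth, then added to microtiter wells already holding the test compound dissolved in DMSO. Fungal growth in liquid culture was then assessed.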

[6] = test system: Mycosphaerella arachidis (Cercospora arachidicola); experiment: Mycosphaerella arachidis (Cercospora arachidicola)/Liquid Culture (Early Leaf Spot); type: cell-based; details: liquid culture, compared to untreated control
How it was run: as §1

Phytophthora infestans = experiment: whole plant or invertebrate; type: in vivo; details: in Solanum lycopersicum, foliar, read-out: control of Phytophthora infestans
Plasmopara viticola = experiment: whole plant or invertebrate; type: in vivo; details: foliar, read-out: control of Plasmopara viticola
[7] = test system: Puccinia recondita f. sp. tritici; experiment: Puccinia recondita f. sp. tritici/Wheat/Leaf Disc Curative (Brown Rust); type: in vivo; details: foliar, wheat leaf disc curative, compared to untreated control
How it was run: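 Curative leaf-disc test on wheat cv. Kanzler segments on agar, spore-inoculated and kept dark at 19° C, 75% rh; formulated compound in water applied 1 day after inoculation. Incubated at 19° C, 75% rh, 12 h light/12 h dark; percent disease control versus untreated scored 6-8 days after application.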

[8] = test system: Puccinia recondita f. sp. tritici; experiment: Puccinia recondita f. sp. tritici/Wheat/Leaf Disc Preventative (Brown Rust); type: in vivo; details: foliar, 200 ppm, wheat leaf disc preventative, compared to untreated control, read-out: control of Puccinia recondita f. sp. tritici
[9] = test system: Magnaporthe grisea (Pyricularia oryzae); experiment: whole plant or invertebrate; type: in vivo; details: foliar, read-out: control of Magnaporthe grisea
[10] = test system: Thanatephorus cucumeris (Rhizoctonia solani); experiment: Thanatephorus cucumeris (Rhizoctonia solani)/Liquid Culture (Foot Rot, Damping-Off); type: cell-based; details: liquid culture, compared to untreated control
Experimental: Mycelia fragments of a newly grown liquid culture of the fungus are directly mixed into nutrient broth (PDB potato dextrose broth). After placing a (DMSO) solution of the test compounds into a microtiter plate (96-well format), the nutrient broth containing the fungal material is added.

[11] = test system: Mycosphaerella graminicola (Septoria tritici); experiment: Mycosphaerella graminicola (Septoria tritici)/Liquid Culture (Septoria Blotch); type: cell-based; details: Zymoseptoria tritici; 20 ppm; liquid culture; compared to untreated control
How it was run: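 Conidia from cryogenic storage mixed into potato dextrose broth and added to microtiter wells already holding DMSO solutions of test compound. Activity expressed as percentage disease control.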

Pyrenophora teres = experiment: Pyrenophora teres/Barley/Leaf Disc Preventative (Net Blotch); type: in vivo; details: foliar, 200 ppm, barley leaf disc preventative, compared to untreated control, read-out: control of Pyrenophora teres
How it was run: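 Formulated compound, diluted in water, sprayed onto barley cv. Hasso leaf segments on agar; spore suspension inoculation followed 2 days after application. Results expressed as percentage disease control.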

Alternaria solani = experiment: Alternaria solani/Tomato/Leaf Disc (Early Blight); type: in vivo; details: foliar, tomato leaf disc, compared to untreated control
Experimental: Tomato leaf disks cv. Baby are placed on agar in multiwell plates (24-well format) and sprayed with the formulated test compound diluted in water. The leaf disks are inoculated with a spore suspension of the fungus 2 days after application. The inoculated leaf disks are incubated at 23° C./21° C. (day/night) and 80% rh (relative humidity) under a light regime of 12/12 h (light/dark) in a climate cabinet and the activity of a compound is assessed as percent disease control compared to untreated when an appropriate level of disease damage appears on untreated check disk leaf disks (5-7 days after application).

Phakopsora pachyrhizi = experiment: Phakopsora pachyrhizi/Soybean/Preventative (Soybean Rust); type: in vivo; details: foliar, 288 h, 200 ppm, soybean leaf disc preventative, compared to untreated control, read-out: control of Phakopsora pachyrhizi

CO/C=C(\Oc1cc(-n2ccc(C(F)(F)F)n2)c(OC)cc1C)C(=O)OC [Compound E-32, methyl (Z)-3-methoxy-2-[4-methoxy-2-methyl-5-[3-(trifluoromethyl)pyrazol-1-yl]phenoxy]prop-2-enoate]
inhibition of growth at 20 ppm [1]: ≥ 80%
inhibition of growth at 20 ppm [2]: ≥ 80%
pest or weed control at 200 ppm [3]: ≥ 80%
pest or weed control at 200 ppm [4]: ≥ 80%
inhibition of growth at 20 ppm [5]: ≥ 80%
inhibition of growth at 20 ppm [6]: ≥ 80%
pest or weed control at 200 ppm (Phytophthora infestans): ≥ 80%
pest or weed control at 200 ppm (Plasmopara viticola): ≥ 80%
pest or weed control at 200 ppm [7]: ≥ 80%
pest or weed control at 200 ppm [8]: ≥ 80%
pest or weed control at 200 ppm [9]: ≥ 80%
inhibition of growth at 20 ppm [10]: ≥ 80%
inhibition of growth at 20 ppm [11]: ≥ 80%
melting point: 130 to 133 °C

C/C=C/c1ccn(-c2ccc(C)c(O/C(=C\OC)C(=O)OC)c2)n1 [Compound E-38, methyl (Z)-3-methoxy-2-[2-methyl-5-[3-[(E)-prop-1-enyl]pyrazol-1-yl]phenoxy]prop-2-enoate]
inhibition of growth at 20 ppm [1]: ≥ 80%
inhibition of growth at 20 ppm [2]: ≥ 80%
pest or weed control at 200 ppm [3]: ≥ 80%
inhibition of growth at 20 ppm [5]: ≥ 80%
inhibition of growth at 20 ppm [6]: ≥ 80%
pest or weed control at 200 ppm (Phytophthora infestans): ≥ 80%
pest or weed control at 200 ppm (Plasmopara viticola): ≥ 80%
pest or weed control at 200 ppm [7]: ≥ 80%
pest or weed control at 200 ppm [8]: ≥ 80%
pest or weed control at 200 ppm [9]: ≥ 80%
pest or weed control at 200 ppm (Pyrenophora teres): ≥ 80%
inhibition of growth at 20 ppm [10]: ≥ 80%
inhibition of growth at 20 ppm [11]: ≥ 80%
melting point: 110 to 112 °C

C=Cc1ccn(-c2ccc(C)c(O/C(=C\OC)C(=O)OC)c2)n1 [Compound E-45, methyl (Z)-3-methoxy-2-[2-methyl-5-(3-vinylpyrazol-1-yl)phenoxy]prop-2-enoate]
inhibition of growth at 20 ppm [2]: ≥ 80%
pest or weed control at 200 ppm [3]: ≥ 80%
pest or weed control at 200 ppm [4]: ≥ 80%
inhibition of growth at 20 ppm [5]: ≥ 80%
inhibition of growth at 20 ppm [6]: ≥ 80%
pest or weed control at 200 ppm (Phytophthora infestans): ≥ 80%
pest or weed control at 200 ppm (Plasmopara viticola): ≥ 80%
pest or weed control at 200 ppm [7]: ≥ 80%
pest or weed control at 200 ppm [8]: ≥ 80%
pest or weed control at 200 ppm [9]: ≥ 80%
pest or weed control at 200 ppm (Pyrenophora teres): ≥ 80%
inhibition of growth at 20 ppm [10]: ≥ 80%
inhibition of growth at 20 ppm [11]: ≥ 80%
melting point: 114 to 117 °C

CO/C=C(\Oc1cc(-n2cc(F)c(C(C)C)n2)ccc1C)C(=O)OC [Compound E-46, methyl (Z)-2-[5-(4-fluoro-3-isopropyl-pyrazol-1-yl)-2-methyl-phenoxy]-3-methoxy-prop-2-enoate]
inhibition of growth at 20 ppm [1]: ≥ 80%
inhibition of growth at 20 ppm [2]: ≥ 80%
inhibition of growth at 20 ppm [5]: ≥ 80%
inhibition of growth at 20 ppm [6]: ≥ 80%
pest or weed control at 200 ppm (Phytophthora infestans): ≥ 80%
pest or weed control at 200 ppm (Plasmopara viticola): ≥ 80%
pest or weed control at 200 ppm [7]: ≥ 80%
pest or weed control at 200 ppm [8]: ≥ 80%
pest or weed control at 200 ppm [9]: ≥ 80%
inhibition of growth at 20 ppm [10]: ≥ 80%
inhibition of growth at 20 ppm [11]: ≥ 80%
melting point: 111 to 113 °C

CO/C=C(\Oc1cc(-n2cc(C(C)C)cn2)ccc1C)C(=O)OC [Compound E-57, methyl (Z)-2-[5-(4-isopropylpyrazol-1-yl)-2-methyl-phenoxy]-3-methoxy-prop-2-enoate]
pest or weed control at 200 ppm (Alternaria solani): ≥ 80%
inhibition of growth at 20 ppm [1]: ≥ 80%
inhibition of growth at 20 ppm [2]: ≥ 80%
pest or weed control at 200 ppm [3]: ≥ 80%
pest or weed control at 200 ppm [4]: ≥ 80%
inhibition of growth at 20 ppm [5]: ≥ 80%
inhibition of growth at 20 ppm [6]: ≥ 80%
pest or weed control at 200 ppm (Phakopsora pachyrhizi): ≥ 50%
pest or weed control at 200 ppm (Phytophthora infestans): ≥ 80%
pest or weed control at 200 ppm (Plasmopara viticola): ≥ 80%
pest or weed control at 200 ppm [7]: ≥ 80%
pest or weed control at 200 ppm [8]: ≥ 80%
pest or weed control at 200 ppm [9]: ≥ 80%
inhibition of growth at 20 ppm [10]: ≥ 80%
inhibition of growth at 20 ppm [11]: ≥ 80%

CO/C=C(\Oc1cc(-n2cc(C3CCCC3)cn2)ccc1C)C(=O)OC [Compound E-58, methyl (Z)-2-[5-(4-cyclopentylpyrazol-1-yl)-2-methyl-phenoxy]-3-methoxy-prop-2-enoate]
pest or weed control at 200 ppm (Alternaria solani): ≥ 80%
inhibition of growth at 20 ppm [1]: ≥ 80%
inhibition of growth at 20 ppm [2]: ≥ 80%
pest or weed control at 200 ppm [3]: ≥ 80%
pest or weed control at 200 ppm [4]: ≥ 80%
inhibition of growth at 20 ppm [5]: ≥ 80%
inhibition of growth at 20 ppm [6]: ≥ 80%
pest or weed control at 200 ppm (Phakopsora pachyrhizi): ≥ 50%
pest or weed control at 200 ppm (Phytophthora infestans): ≥ 80%
pest or weed control at 200 ppm (Plasmopara viticola): ≥ 80%
pest or weed control at 200 ppm [7]: ≥ 80%
pest or weed control at 200 ppm [8]: ≥ 80%
pest or weed control at 200 ppm [9]: ≥ 80%
inhibition of growth at 20 ppm [10]: ≥ 80%
inhibition of growth at 20 ppm [11]: ≥ 80%

CO/C=C(\Oc1cc(-n2cc(I)cn2)ccc1C)C(=O)OC [Compound E-60, methyl (Z)-2-[5-(4-iodopyrazol-1-yl)-2-methyl-phenoxy]-3-methoxy-prop-2-enoate]
pest or weed control at 200 ppm (Alternaria solani): ≥ 80%
inhibition of growth at 20 ppm [1]: ≥ 80%
inhibition of growth at 20 ppm [2]: ≥ 80%
pest or weed control at 200 ppm [3]: ≥ 80%
pest or weed control at 200 ppm [4]: ≥ 80%
inhibition of growth at 20 ppm [5]: ≥ 80%
inhibition of growth at 20 ppm [6]: ≥ 80%
pest or weed control at 200 ppm (Phytophthora infestans): ≥ 80%
pest or weed control at 200 ppm (Plasmopara viticola): ≥ 80%
pest or weed control at 200 ppm [7]: ≥ 80%
pest or weed control at 200 ppm [8]: ≥ 80%
pest or weed control at 200 ppm [9]: ≥ 80%
inhibition of growth at 20 ppm [10]: ≥ 80%
inhibition of growth at 20 ppm [11]: ≥ 80%

C=C(C)c1ccn(-c2ccc(C)c(O/C(=C\OC)C(=O)OC)c2)n1 [Compound E-65, methyl (Z)-2-[5-(3-isopropenylpyrazol-1-yl)-2-methyl-phenoxy]-3-methoxy-prop-2-enoate]
inhibition of growth at 20 ppm [1]: ≥ 80%
inhibition of growth at 20 ppm [2]: ≥ 80%
pest or weed control at 200 ppm [4]: ≥ 80%
inhibition of growth at 20 ppm [5]: ≥ 80%
inhibition of growth at 20 ppm [6]: ≥ 80%
pest or weed control at 200 ppm (Plasmopara viticola): ≥ 80%
pest or weed control at 200 ppm [7]: ≥ 80%
pest or weed control at 200 ppm [8]: ≥ 80%
pest or weed control at 200 ppm [9]: ≥ 80%
inhibition of growth at 20 ppm [10]: ≥ 80%
inhibition of growth at 20 ppm [11]: ≥ 80%
melting point: 80 to 84 °C

CO/C=C(\Oc1cc(-n2ccc(C(F)(F)F)n2)ccc1Cl)C(=O)OC [Compound E-98, methyl (Z)-2-[2-chloro-5-[3-(trifluoromethyl)pyrazol-1-yl]phenoxy]-3-methoxy-prop-2-enoate]
pest or weed control at 200 ppm (Alternaria solani): ≥ 80%
inhibition of growth at 20 ppm [1]: ≥ 80%
inhibition of growth at 20 ppm [2]: ≥ 80%
pest or weed control at 200 ppm [3]: ≥ 80%
inhibition of growth at 20 ppm [5]: ≥ 80%
inhibition of growth at 20 ppm [6]: ≥ 80%
pest or weed control at 200 ppm (Phakopsora pachyrhizi): ≥ 50%
pest or weed control at 200 ppm (Phytophthora infestans): ≥ 80%
pest or weed control at 200 ppm (Plasmopara viticola): ≥ 80%
pest or weed control at 200 ppm [8]: ≥ 80%
pest or weed control at 200 ppm [9]: ≥ 80%
inhibition of growth at 20 ppm [10]: ≥ 80%
inhibition of growth at 20 ppm [11]: ≥ 80%
